The CheMixHub viscosity set

Assay: xn = mol fraction of the nth substance listed

CN(C)C=O + CCCO
viscosity [mPa·s], 101 kPa
Details	293.15 K	298.15 K	303.15 K	308.15 K	313.15 K	318.15 K	323.15 K
x1 = 0.4512	–	1.232	–	–	–	–	–
x1 = 0.5	–	–	0.893	–	0.764	–	0.655
x2 = 0.1001	–	–	0.7821	0.7366	0.6955	0.6569	0.6217
x2 = 0.1007	0.9529	–	0.8538	–	0.7741	–	0.7068
x2 = 0.2001	–	–	0.8111	0.7618	0.7167	0.6752	0.638
x2 = 0.2026	0.9902	–	0.8826	–	0.7929	–	0.7215
x2 = 0.2518	1.01	–	0.8911	–	0.7973	–	0.7241
x2 = 0.3	–	–	0.8451	0.7912	0.742	0.698	0.657
x2 = 0.3548	1.03	–	0.9064	–	0.8052	–	0.7257
x2 = 0.3967	–	–	0.8868	0.8273	0.7741	0.7256	0.6801
x2 = 0.5002	–	–	0.9267	0.8623	0.8042	0.7517	0.7022
x2 = 0.5007	1.109	–	0.9588	–	0.84	–	0.7422
x2 = 0.5008	1.127	–	0.977	–	0.8569	–	0.7593
x2 = 0.5981	–	–	–	–	0.8728	–	–
x2 = 0.5982	1.175	–	1.01	–	–	–	0.7643
x2 = 0.6	–	–	0.9903	0.9169	0.8505	0.7912	0.7367
x2 = 0.6981	1.315	–	1.112	–	0.9521	–	0.8239
x2 = 0.7001	–	–	1.076	0.9904	0.9148	0.8466	0.784
x2 = 0.75	1.368	–	1.146	–	0.9688	–	0.8261
x2 = 0.7989	1.476	–	1.231	–	1.037	–	0.8829
x2 = 0.8001	–	–	1.204	1.1	1.008	0.9264	0.8521
x2 = 0.8981	1.734	–	1.412	–	1.164	–	0.9688
x2 = 0.9001	–	–	1.403	1.272	1.153	1.074	0.955

c1ccccc1 + CO
viscosity [mPa·s]
Details	293.15 K	298.15 K	303.15 K	313.15 K	323.15 K
101 kPa, x1 = 0.1598	–	–	0.564	0.491	0.411
101 kPa, x1 = 0.3449	–	–	0.563	0.507	0.405
101 kPa, x1 = 0.4474	–	–	0.559	0.478	0.414
101 kPa, x1 = 0.7425	–	–	0.546	0.469	0.411
101 kPa, x1 = 0.8277	–	–	0.54	0.49	0.413
101 kPa, x2 = 0.0504	–	0.581	–	–	–
101 kPa, x2 = 0.1	0.622	0.563	–	–	–
101 kPa, x2 = 0.152	0.615	–	0.534	0.468	0.416
101 kPa, x2 = 0.1998	–	0.553	–	–	–
101 kPa, x2 = 0.2	0.613	–	–	–	–
101 kPa, x2 = 0.272	0.613	–	0.532	0.461	0.414
101 kPa, x2 = 0.2982	–	0.56	–	–	–
101 kPa, x2 = 0.4	0.619	0.561	–	–	–
101 kPa, x2 = 0.444	0.619	–	0.536	0.469	0.415
101 kPa, x2 = 0.5	–	0.566	–	–	–
101 kPa, x2 = 0.6	0.626	0.565	–	–	–
101 kPa, x2 = 0.632	0.624	–	0.535	0.467	0.414
101 kPa, x2 = 0.7	–	0.56	–	–	–
101 kPa, x2 = 0.766	0.619	–	0.534	0.466	0.412
101 kPa, x2 = 0.8	0.626	–	–	–	–
101 kPa, x2 = 0.8009	–	0.557	–	–	–
101 kPa, x2 = 0.9	0.61	–	–	–	–
101 kPa, x2 = 0.901	0.604	–	0.527	0.464	0.411
101 kPa, x2 = 0.9013	–	0.553	–	–	–
101 kPa, x2 = 0.95	–	0.551	–	–	–
101.33 kPa, x1 = 0.04357	0.59	–	0.5121	0.4473	0.3935
101.33 kPa, x1 = 0.0572	–	–	0.562	0.5	0.415
101.33 kPa, x1 = 0.1598	–	–	0.564	0.491	0.411
101.33 kPa, x1 = 0.2216	0.6132	–	0.528	0.4585	0.4016
101.33 kPa, x1 = 0.2552	–	–	0.56	0.505	0.418
101.33 kPa, x1 = 0.3449	–	–	0.563	0.507	0.405
101.33 kPa, x1 = 0.4216	0.6197	–	0.5315	0.4613	0.4039
101.33 kPa, x1 = 0.4474	–	–	0.559	0.478	0.414
101.33 kPa, x1 = 0.603	0.6164	–	0.5296	0.4593	0.4034
101.33 kPa, x1 = 0.7425	–	–	0.546	0.469	0.411
101.33 kPa, x1 = 0.7816	0.6138	–	0.5278	0.4611	0.4073
101.33 kPa, x1 = 0.8277	–	–	0.54	0.49	0.413
101.33 kPa, x1 = 0.9285	0.6252	–	0.5399	0.4736	0.4198
